Here are results for 1 substance from US7692002B2, “Metal complexes having vitamin B12 as a ligand” (University of Zurich, priority 2004, dated 2010).

This test has as its system mouse melanoma cell line (B16F1). The experiment in a line: Cytotoxicity tests with a mouse melanoma cell line (B16F1). The settings on record: B16F1 mouse melanoma cells, concentration of 100 μM. In kind it is cell-based.

Consider Cyanocobalamin [vitamin B12], for which the proliferation inhibition entry was “no effect at all”.
